# Assay results as given in patent US7745465B2, “Method of enhancing cellular production of molecular chaperone, hydroxylamine derivatives useful for enhancing the chaperone production and the preparation thereof” (CytRx Corporation, priority 1995, dated 2010).
# Test system: Male Sprague-Dawley rats
# Experiment: Protection against cardiac ischaemia: survival after 5 minutes coronary occlusion and reperfusion
# Type: in vivo, rat
# Details: i.v. 1 mg/kgbw, 5 min. before the occlusion; non-treated control 10
# Description: Male Sprague-Dawley rats (380-450 g b.w.) were anaesthetized with sodiumpentobarbital (Nembutal 60 mg/kg body weight, i.p.) and artificially ventilated with room air (2 ml/100 g; 54 stroke/minutes) via tracheotomy. The right carotid artery was catheterized and connected to a pressure transducer (BPR-01, Stoelting) for the measurement of systemic arterial blood pressure (BP) by means of a preamplifier (Hg-02, Experimetria). Hydroxylamine derivatives disclosed in Example 5 were administered via the venous cannule to jugular vein (i.v.) and orally (p.o.). Heart rate (HR) was measured by a cardiotachometer (HR-01, Experimetria). The electrocardiogram (ECG standard lead II) was recorded on a devices recorder (MR-12, Medicor) by means of subcutaneous steel needles electrodes. The chest was opened by a left thoracotomy and the heart was exteriorized by a gentle pressure on the right side of the rib cage. A 4-0 silk suture was quickly placed under the main left coronary artery as described by Selye et al. (1960). The heart was carefully replaced in the chest and the animal left to recover. Rectal temperature was monitored and kept constant at 37 C. The experimental protocol was initiated with a 15 minute stabilization period during which the observation of a sustained blood pressure less than 70 mmHg and or the occurrence of anhythmia led to exclusion. Myocardial ischemia was induced with coronary occlusion for 5 minutes and reperfusion allowed for 10 minutes.
# During the entire experiment BP, HR and ECG were continuously registered on a multiscriptor (R61-6CH, Medicor). Hydroxylamine derivatives, the tautomeric forms of which are represented by structures (I) and (II), were administered 5 to 60 minutes before the occlusion after i.v. and p.o. treatment, respectively. […]
# The mean duration of ventricular tachycardia (VT) and/or ventricular fibrillation (VF) during the first 3 minutes of reperfusion was analyzed by one-way analysis of variance. The incidence of VF was analyzed using a chi-square test. […] The haemodynamic variables were analyzed using Student's “t”-test. The critical level of significance was set at p<0.05. All results were expressed as a means±S.E.M. Drugs were administered i.v. in a dose of 1 mg/kgbw 5 min. before the occlusion.
# The hydroxylamine derivatives that are found to be particularly advantageous for protecting an animal against ischemic/reperfusion injury are listed below. Survival (%) indicates the percent of animals survived the effects of 5 minutes coronary occlusion.
row,Compound,Survival (%)
1,"Cl.OC(CON=C(Cl)c1ccco1)CN1CCCCC1 (centres unmarked) [Example 7, N-[2-hydroxy-3-(1-piperidinyl)propoxy]-2-furanecarboximidoyl chloride monohydrochloride]",80%
2,"O=C(O)/C=C\C(=O)O.OC(CON=C(Cl)c1ccncc1)CN1CCCCC1 (centres unmarked) [Example 8, N-[2-hydroxy-3-(1-piperidinyl)propoxy]-4-pyridinecarboximidoyl chloride (Z)-2-butenedioate (1:1)]",100%
3,"CC(C)NCC(O)CON=C(Cl)c1cccc(C(F)(F)F)c1.Cl (centres unmarked) [Example 10, N-[2-hydroxy-3-[(1-methylethyl)amino]propoxy]-3-trifluoromethyl-benzene-carboximidoyl chloride monohydrochloride]",67%
4,"Cl.OC(CON=C(Cl)c1cccc(C(F)(F)F)c1)CN1CCCCC1 (centres unmarked) [Example 13, N-[2-hydroxy-3-(1-piperidinyl)propoxy]-3-trifluoromethyl-benzenecarboximidoyl chloride monohydrochloride]",60%
5,"N=C(NOCC(CN1CCCCC1)OC(=O)c1ccccc1)c1cccnc1.O=C(O)/C=C\C(=O)O (centres unmarked) [Example 20, N-[2-benzoyloxy-3-(1-piperidinyl)propoxy]-3-pyridinecarboximidamide (Z)-2-butenedioate (1:1)]",100%
6,"CC(C)(C)NCC(O)CONC(=N)c1cccc(C(F)(F)F)c1.Cl.Cl (centres unmarked) [Example 47, N-[3-[(1,1-dimethylethyl)amino]-2-hydroxypropoxy]-3-trifluoromethyl-benzenecarboximidamide dihydrochloride]",100%
7,"CC(C)(C)NC(=O)NOCC(O)CN1CCCCC1 (centres unmarked) [Example 62, N-tert-butyl-N′-[(2-hydroxy-3-(1-piperidinyl)propoxy)]-urea]",57%
8,"O=C(NOCC(O)CN1CCCCC1)Nc1cccc([N+](=O)[O-])c1 (centres unmarked) [Example 63, N-(3-nitro-phenyl)-N′-[(2-hydroxy-3-(1-piperidinyl)propoxy)]-urea]",50%
9,"COC(=NOCC(O)CN1CCCCC1)c1cccnc1.O=C(O)/C=C\C(=O)O (centres unmarked) [Example 66, Methyl-N-[2-hydroxy-3-(1-piperidinyl)propoxy]-3-pyridinecarboximidate (Z)-2-butenedioate (1:1)]",57%
10,"COc1ccc(CC(Cl)=NOCC(O)CN2CCCCC2)cc1OC (centres unmarked) [N-[2-hydroxy-3-(1-piperidyl)-propoxy]-∀-(3,4-dimethoxy-phenyl)-acetimidoyl chloride]",67%
11,CCN(CC)CC(O)CON=C(Cl)c1cccnc1.Cl (centres unmarked) [N-[2-hydroxy-3-(diethyl-amino)-propoxy]-3-pyridincarboximidoyl chloride hydrochloride (1:1)],62%
12,O=C(O)/C=C\C(=O)O.OC(CON=C(Cl)c1cccnc1)CN1CCOCC1 (centres unmarked) [N-[2-hydroxy-3-(morpholin-1-yl-propoxy]-3-pyridincarboxamidoyl chloride (Z)-2-butendioate (1:1)],71%
13,O=C(O)/C=C\C(=O)O.OC(CON=C(Cl)c1cccnc1)CN1CCCC1 (centres unmarked) [N-[2-hydroxy-3-(pyrrolidin-1-yl)-propoxy]-3-pyridincarboximidoyl chloride (Z)-2-butendioate (1:1)],67%
14,CC(C)(C)NCC(O)CON=C(Cl)c1cccnc1.O=C(O)/C=C\C(=O)O (centres unmarked) [N-[2-hydroxy-3-(tert-butyl-amino)-propoxy]-3-pyridincarboxamidoyl chloride (Z)-2-butendioate (1:1)],57%
15,CC(C)NCC(O)CON=C(Cl)c1cccnc1.O=C(O)/C=C\C(=O)O (centres unmarked) [N-[2-hydroxy-3-prop-2-yl-amino)-propoxy]-3-pyridincarboximidoyl chloride (Z)-butendioate (1:1)],60%

# Test system: HSP72
# Experiment: Heat stress induced HSP72 production in 3T3 cells
# Type: cell-based, mouse
# Details: 10^−5 M, treatment 15 min. before 30 min. 43° C. heat stress
# Description: From the applied cells the 3T3 and L-929 mouse fibroblasts were cultured in MEM medium and grew in monolayer, the U-937 human leukemia cells were maintained in RPMI-1640 medium, in suspension culture, while the HeLa human epithelial cells were cultured in DMEM medium and in monolayer form. Cell cultures were maintained as described in example 6.2 (a) with the difference that cells were cultured in the above mentioned culture mediums.
# Experiments were carried out applying stress before and after the drug treatment. Stress was provoked by heat, by chemical agent, HgCl2 treatment. The test compounds were applied in the treatments at the 10^−5 M concentration.
# The experiments on 3T3 cell applying heat stress were performed as described in the 6.2. (c) point of example 6, with the difference that stress was induced by a 30 min. exposure at 43° C. temperature and treatment with the test compounds was performed 15 min. before or 100 min. after the heat stress.
# Immunodetection was carried out using the HSP72 specific SPA 810 (StressGene) primary and the horse-radish peroxidase conjugated A9044 (Sigma) secondary antibodies. Densitometric evaluation was performed by a LKB Ultrascan XL densitometer.
row,Compound,HSP72 level relative to the stress exposed control
1,"O=C(O)/C=C\C(=O)O.OC(CON=C(Cl)c1cccnc1)CN1CCCCC1 (single isomer, unassigned; (-)) [(−)N-[2-hydroxy-3-(1-piperidinyl)-propoxy]-3-pyridine-carboximidoyl-chloride-(Z)-2-butenedioate(1:1)]",+++ (>100%)
2,"O=C(O)/C=C\C(=O)O.c1cncc(C2=NOCC(CN3CCCCC3)O2)c1 (centres unmarked) [3-(3-piridyl)-5-[(1-piperidinyl)-methyl]-5,6-dihydro-6H-1,4,2-dioxazine-(Z)-2-butenedioate(1:1)]",++ (51-100%)
3,"Cl.c1ccc(C2=NOCC(CN3CCCCC3)O2)cc1 (centres unmarked) [3-phenyl-5-[(1-piperidinyl)-methyl]-5,6-dihydro-6H-1,4,2-dioxazine hydrochloride]",++ (51-100%)
4,Cl.Cl.N=C(NOCC(O)CN1CCCCC1)c1cnc2ccccc2c1 (centres unmarked) [Example 42],+++ (>100%)
5,"CCCNC(=O)NOCC(O)CN1CCCCC1 (centres unmarked) [Example 56, N-[2-hydroxy-3-(1-piperidinyl)propoxy]-N′-propyl-urea]",+++ (>100%)
6,"CN(C)C(=Nc1ccccc1)NOCC(O)CN1CCCCC1.Cl (centres unmarked) [Example 71, N,N-dimethyl-N′-[2-hydroxy-3-(1-piperidinyl)-propoxy]-N″-phenyl-guanidine hydrochloride]",0 (0 indicates that the treatment altered by ±20% the stress induced hsp72 level in the cells)
7,Cl.OC(CON(C(=Nc1ccccc1)c1ccccc1)c1ccccc1)CN1CCCCC1 (centres unmarked) [Example 73],0 (0 indicates that the treatment altered by ±20% the stress induced hsp72 level in the cells)
8,COC(=NOCCCN1CCCCC1)c1cccnc1.O=C(O)/C=C\C(=O)O [Methyl-{N-[3-(1-piperidinyl)-propoxy]}-3-pyridine-carboximidate maleate],0 (0 indicates that the treatment altered by ±20% the stress induced hsp72 level in the cells)
9,"CN(C)C(=NOCCCN1CCCCC1)Nc1ccccc1.Cl [N,N-dimethyl-N′-phenyl-N″-[3-(1-piperidinyl)-propoxy]-guanidine hydrochloride]",++ (51-100%)
10,CCCCCCNC(=O)N(C)OCCCN1CCCCC1 [N-[3-(I-piperidinyl)-propoxy]-N-methyl-N′-(n-hexyl)-urea],0 (0 indicates that the treatment altered by ±20% the stress induced hsp72 level in the cells)
11,Cl.c1cncc(C(=NOCCCN2CCCCC2)N2CCCC2)c1 [N-[3-(I-piperidinyl)-propoxy]-N′-tetramethylene-3-pyridine-carboxamidine hydrochloride],+++ (>100%)
12,CC(=O)OC(CONC(=O)NC1CCCCC1)CN1CCCCC1.Cl (centres unmarked) [N-cyclohexyl-N′-[2-acetoxy-3-(1-piperidinyl)-propoxy]-urea hydrochloride],0 (0 indicates that the treatment altered by ±20% the stress induced hsp72 level in the cells)
13,CN(OCCCN1CCCCC1)C(=O)c1cccc(C(F)(F)F)c1.Cl [N-methyl-N-[3-(1-piperidinyl)-propoxy]-m-trifluoromethyl-benzamide hydrochloride],+++ (>100%)
14,N-(2-hydroxy-3-piperidino-propoxy)-ethylurethane,+ (21-50%)
15,N-[2-hydroxy-3-(1-piperidinyl)-propoxy]-benzylurethane,0 (0 indicates that the treatment altered by ±20% the stress induced hsp72 level in the cells)

# Same assay, conditions: 10^−5 M, treatment 100 min. after 30 min. 43° C. heat stress
row,Compound,HSP72 level relative to the stress exposed control
1,"O=C(O)/C=C\C(=O)O.OC(CON=C(Cl)c1ccncc1)CN1CCCCC1 (centres unmarked) [Example 8, N-[2-hydroxy-3-(1-piperidinyl)propoxy]-4-pyridinecarboximidoyl chloride (Z)-2-butenedioate (1:1)]",++ (51-100%)
2,Cl.Cl.N=C(NOCC(O)CN1CCCCC1)c1cnc2ccccc2c1 (centres unmarked) [Example 42],+++ (>100%)
